PubChem BioAssay (NCI)
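Cells were grown in 96-well plates and exposed to each compound for 48 hours at five concentrations; endpoints were interpolated linearly between bracketing concentrations, or set to the highest concentration if not reached. Abbreviation: GI50, concentration required for 50% inhibition of growth. TGI denotes the concentration required for complete inhibition of growth.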

What was measured:
Test in all cases: NCI-60 cell line screen, 48 h
OVCAR-4 ovarian = test system: OVCAR-4 ovarian
MOLT-4 leukemia = test system: MOLT-4 leukemia
HS 578T breast = test system: HS 578T breast
LOX IMVI melanoma = test system: LOX IMVI melanoma
A498 renal = test system: A498 renal
CCRF-CEM leukemia = test system: CCRF-CEM leukemia
SK-OV-3 ovarian = test system: SK-OV-3 ovarian
MALME-3M melanoma = test system: MALME-3M melanoma
EKVX NSCLC = test system: EKVX NSCLC
NCI-H522 lung = test system: NCI-H522 lung
IGROV1 ovarian = test system: IGROV1 ovarian
NCI/ADR-RES ovarian = test system: NCI/ADR-RES ovarian
UACC-257 melanoma = test system: UACC-257 melanoma
HL-60(TB) leukemia = test system: HL-60(TB) leukemia
NCI-H460 lung = test system: NCI-H460 lung
MCF7 breast = test system: MCF7 breast
SF-295 CNS = test system: SF-295 CNS
M14 melanoma = test system: M14 melanoma
RXF 393 renal = test system: RXF 393 renal
DU-145 prostate = test system: DU-145 prostate
SK-MEL-28 melanoma = test system: SK-MEL-28 melanoma
SNB-19 CNS = test system: SNB-19 CNS
SNB-75 CNS = test system: SNB-75 CNS
A549 NSCLC = test system: A549 NSCLC
UO-31 renal = test system: UO-31 renal
CAKI-1 renal = test system: CAKI-1 renal
RPMI-8226 leukemia = test system: RPMI-8226 leukemia
NCI-H23 lung = test system: NCI-H23 lung
T-47D breast = test system: T-47D breast
SW-620 colon = test system: SW-620 colon
OVCAR-5 ovarian = test system: OVCAR-5 ovarian
ACHN renal = test system: ACHN renal
HCT-116 colon = test system: HCT-116 colon
OVCAR-8 ovarian = test system: OVCAR-8 ovarian
K-562 leukemia = test system: K-562 leukemia
UACC-62 melanoma = test system: UACC-62 melanoma
HT29 colon = test system: HT29 colon
NCI-H226 lung = test system: NCI-H226 lung
U251 CNS = test system: U251 CNS
COLO 205 colon = test system: COLO 205 colon
TK-10 renal = test system: TK-10 renal
786-0 renal = test system: 786-0 renal
HCT-15 colon = test system: HCT-15 colon
HOP-62 NSCLC = test system: HOP-62 NSCLC
PC-3 prostate = test system: PC-3 prostate
BT-549 breast = test system: BT-549 breast
MDA-MB-435 = test system: MDA-MB-435
KM12 colon = test system: KM12 colon
HCC-2998 colon = test system: HCC-2998 colon
SN12C renal = test system: SN12C renal
MDA-MB-231 breast = test system: MDA-MB-231 breast
SF-268 CNS = test system: SF-268 CNS
HOP-92 NSCLC = test system: HOP-92 NSCLC
OVCAR-3 ovarian = test system: OVCAR-3 ovarian
SK-MEL-5 melanoma = test system: SK-MEL-5 melanoma

CN(C)Cc1c[nH]c2c1C(=O)c1c(c(O)c3ccccc3c1O)C2=O
GI50 (OVCAR-4 ovarian): 20.1 µM | TGI (OVCAR-4 ovarian): 42.6 µM | GI50 (MOLT-4 leukemia): 3.42 µM | TGI (MOLT-4 leukemia): > 100 µM | GI50 (HS 578T breast): 10.9 µM | TGI (HS 578T breast): 26.7 µM | GI50 (LOX IMVI melanoma): 6.32 µM | TGI (LOX IMVI melanoma): 19.5 µM | GI50 (A498 renal): 12.1 µM | TGI (A498 renal): 25.3 µM | GI50 (CCRF-CEM leukemia): 3.14 µM | TGI (CCRF-CEM leukemia): 20.7 µM | GI50 (SK-OV-3 ovarian): 52 µM | TGI (SK-OV-3 ovarian): > 100 µM | GI50 (MALME-3M melanoma): 9.61 µM | TGI (MALME-3M melanoma): 23.3 µM | GI50 (EKVX NSCLC): 0.603 µM | TGI (EKVX NSCLC): 5.28 µM | GI50 (NCI-H522 lung): 12.6 µM | TGI (NCI-H522 lung): 35.4 µM | GI50 (IGROV1 ovarian): 3.34 µM | TGI (IGROV1 ovarian): 37.2 µM | GI50 (NCI/ADR-RES ovarian): 4.29 µM | TGI (NCI/ADR-RES ovarian): 22.8 µM | GI50 (UACC-257 melanoma): 19.7 µM | TGI (UACC-257 melanoma): 35.4 µM | GI50 (HL-60(TB) leukemia): 17.2 µM | TGI (HL-60(TB) leukemia): 75.7 µM | GI50 (NCI-H460 lung): 3.54 µM | TGI (NCI-H460 lung): 16 µM | GI50 (MCF7 breast): 3.22 µM | TGI (MCF7 breast): 15.5 µM | GI50 (SF-295 CNS): 3.22 µM | TGI (SF-295 CNS): 17.1 µM | GI50 (M14 melanoma): 17.2 µM | TGI (M14 melanoma): 40.4 µM | GI50 (RXF 393 renal): 9.48 µM | TGI (RXF 393 renal): 25.5 µM | GI50 (DU-145 prostate): 0.923 µM | TGI (DU-145 prostate): 11.5 µM | GI50 (SK-MEL-28 melanoma): 27.4 µM | TGI (SK-MEL-28 melanoma): 58 µM | GI50 (SNB-19 CNS): 8.94 µM | TGI (SNB-19 CNS): 43.4 µM | GI50 (SNB-75 CNS): 20 µM | TGI (SNB-75 CNS): 53.5 µM | GI50 (A549 NSCLC): 7.59 µM | TGI (A549 NSCLC): 20.6 µM | GI50 (UO-31 renal): 8.6 µM | TGI (UO-31 renal): 29.5 µM | GI50 (CAKI-1 renal): 10.8 µM | TGI (CAKI-1 renal): 23.9 µM | GI50 (RPMI-8226 leukemia): 4.16 µM | TGI (RPMI-8226 leukemia): 22.2 µM | GI50 (NCI-H23 lung): 9.34 µM | TGI (NCI-H23 lung): 24.9 µM | GI50 (T-47D breast): 11.4 µM | TGI (T-47D breast): > 100 µM | GI50 (SW-620 colon): 3.37 µM | TGI (SW-620 colon): 14.6 µM | GI50 (OVCAR-5 ovarian): 14.3 µM | TGI (OVCAR-5 ovarian): 27.3 µM | GI50 (ACHN renal): 7.08 µM | TGI (ACHN renal): 20.1 µM | GI50 (HCT-116 colon): 8.17 µM | TGI (HCT-116 colon): 34.8 µM | GI50 (OVCAR-8 ovarian): 8.56 µM | TGI (OVCAR-8 ovarian): 29.8 µM | GI50 (K-562 leukemia): 2.24 µM | TGI (K-562 leukemia): > 100 µM | GI50 (UACC-62 melanoma): 16.3 µM | TGI (UACC-62 melanoma): 30.1 µM | GI50 (HT29 colon): 16.7 µM | TGI (HT29 colon): > 100 µM | GI50 (NCI-H226 lung): 17 µM | TGI (NCI-H226 lung): 33.3 µM | GI50 (U251 CNS): 5.56 µM | TGI (U251 CNS): 18.7 µM | GI50 (COLO 205 colon): 0.0386 µM | TGI (COLO 205 colon): > 100 µM | GI50 (TK-10 renal): 5.08 µM | TGI (TK-10 renal): 19.7 µM | GI50 (786-0 renal): 10.5 µM | TGI (786-0 renal): 33.6 µM | GI50 (HCT-15 colon): 5.02 µM | TGI (HCT-15 colon): 16.2 µM | GI50 (HOP-62 NSCLC): 10.7 µM | TGI (HOP-62 NSCLC): 27.9 µM | GI50 (PC-3 prostate): 5.71 µM | TGI (PC-3 prostate): 22.2 µM | GI50 (BT-549 breast): 13.7 µM | TGI (BT-549 breast): 26.5 µM | GI50 (MDA-MB-435): 10.6 µM | TGI (MDA-MB-435): 23 µM | GI50 (KM12 colon): 4.66 µM | TGI (KM12 colon): 20.9 µM | GI50 (HCC-2998 colon): 6.61 µM | TGI (HCC-2998 colon): 21.9 µM | GI50 (SN12C renal): 5.62 µM | TGI (SN12C renal): 19.1 µM | GI50 (MDA-MB-231 breast): 11.6 µM | TGI (MDA-MB-231 breast): 25 µM | GI50 (SF-268 CNS): 8.24 µM | TGI (SF-268 CNS): 23.9 µM | GI50 (HOP-92 NSCLC): 13.6 µM | TGI (HOP-92 NSCLC): 31.7 µM | GI50 (OVCAR-3 ovarian): 2.44 µM | TGI (OVCAR-3 ovarian): 13.9 µM | GI50 (SK-MEL-5 melanoma): 11.2 µM | TGI (SK-MEL-5 melanoma): 23.3 µM
